The values below come from patent US20160303056A1, “FASTING MIMICKING DIET (FMD) AND GLUCOSE LOWERING DRUGS PROTECT NORMAL CELLS AND GENERATE CANCER SENSITIZING CONDITIONS IN RESPONSE TO STANDARD AND HIGH GLUCOSE CONDITIONS INDUCED BY RAPAMYCIN AND DEXAMETHASONE” (UNIVERSITY OF SOUTHERN CALIFORNIA, priority 2015, published 2016).

Data set [1] can be described thus: Blood glucose levels in mice injected ip with metformin. Conditions: metformin 50 mg/kg ip, saline for control mice (FIG. 1E). Type of data set: in vivo, mouse.
Data set [2] can be described thus: Circulating glucose levels in mice given rapamycin or dexamethasone, with or without insulin, STS or FMD. Format: in vivo, mouse (C57BL/6). As to conditions: rapamycin or dexamethasone ip daily for 14 days, compared with ad lib (FIG. 1B).
In data set [3] the test system is C57BL/6 mice. As to conditions: mouse, in vivo.

The structures appear in SMILES notation.

Turning to `CN(C)C(=N)NC(=N)N` [Metformin, N,N-Dimethylimidodicarbonimidic diamide], in data set [1], the circulating glucose levels entry is “reducing circulating glucose levels”.
In the case of `C[C@@H]1C[C@H]2[C@@H]3CCC4=CC(=O)C=C[C@]4(C)[C@@]3(F)[C@@H](O)C[C@]2(C)[C@@]1(O)C(=O)CO` [dexamethasone], the circulating glucose levels result in data set [2] is listed as “caused an increase in glucose levels”. Besides, in data set [3], the “sensitization of mice to chemotherapy (mortality)” value is “increased mortality”.
Taken in the same sequence, the figures for `CO[C@H]1C[C@@H]2CC[C@@H](C)[C@@](O)(O2)C(=O)C(=O)N2CCCC[C@H]2C(=O)O[C@H]([C@H](C)C[C@@H]2CC[C@@H](O)[C@H](OC)C2)CC(=O)[C@H](C)/C=C(\C)[C@@H](O)[C@@H](OC)C(=O)[C@H](C)C[C@H](C)/C=C/C=C/C=C/1C` [rapamycin] were “caused an increase in glucose levels” and “increased mortality”.
